# From PubChem BioAssay (NCI)
#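 Abbreviation: GI50, concentration required for 50% inhibition of growth. TGI: total growth inhibition.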
# How the values were obtained:
# Assay in all cases: NCI-60 cell line screen, 384-well format
# [1] = system: NCI-H23 lung
# [2] = system: 786-0 renal
# [3] = system: SF-268 CNS
# [4] = system: HOP-92 NSCLC
# [5] = system: RXF 393 renal
# [6] = system: HS 578T breast
# [7] = system: IGROV1 ovarian
# [8] = system: HOP-62 NSCLC
# [9] = system: MOLT-4 leukemia
# [10] = system: HL-60(TB) leukemia
# [11] = system: MDA-MB-468 breast
# [12] = system: LOX IMVI melanoma
# [13] = system: SK-MEL-5 melanoma
# [14] = system: UO-31 renal
# [15] = system: HCT-116 colon
# [16] = system: MDA-MB-231 breast
# [17] = system: A549 NSCLC
# [18] = system: UACC-62 melanoma
# [19] = system: HCC-2998 colon
# [20] = system: OVCAR-4 ovarian
# [21] = system: MCF7 breast
# [22] = system: OVCAR-5 ovarian
# [23] = system: NCI-H522 lung
# [24] = system: PC-3 prostate
# [25] = system: NCI-H460 NSCLC
# [26] = system: SNB-19 CNS
# [27] = system: DU-145 prostate
# [28] = system: SK-OV-3 ovarian
# [29] = system: SF-295 CNS
# [30] = system: SK-MEL-28 melanoma
# [31] = system: OVCAR-3 ovarian
# [32] = system: MALME-3M melanoma
# [33] = system: TK-10 renal
# [34] = system: COLO 205 colon
# [35] = system: RPMI-8226 leukemia
# [36] = system: HCT-15 colon
# [37] = system: SF-539 CNS
# [38] = system: OVCAR-8 ovarian
# [39] = system: SN12C renal
# [40] = system: NCI-H226 lung
# [41] = system: NCI-H322M lung
# [42] = system: EKVX NSCLC
# [43] = system: CCRF-CEM leukemia
# [44] = system: SK-MEL-2 melanoma
# [45] = system: HT29 colon
# [46] = system: U251 glioblastoma
# [47] = system: KM12 colon
smiles,measurement,setting,value
CC1=C(c2cccc(O)c2)[C@H](c2ccc(OCCN3CC(CF)C3)cc2)Oc2ccc(O)cc21,GI50,[1],7.02 µM
same,TGI,[1],19.6 µM
same,GI50,[2],2.65 µM
same,TGI,[2],7.32 µM
same,GI50,[3],4.24 µM
same,TGI,[3],15.6 µM
same,GI50,[4],3.83 µM
same,TGI,[4],13.1 µM
same,GI50,[5],1.87 µM
same,TGI,[5],5.29 µM
same,GI50,[6],2.48 µM
same,TGI,[6],12 µM
same,GI50,[7],4.88 µM
same,TGI,[7],16.9 µM
same,GI50,[8],4.55 µM
same,TGI,[8],15 µM
same,GI50,[9],1.58 µM
same,TGI,[9],2.97 µM
same,GI50,[10],1.86 µM
same,TGI,[10],3.29 µM
same,GI50,[11],1.94 µM
same,TGI,[11],4.35 µM
same,GI50,[12],1.77 µM
same,TGI,[12],3.34 µM
same,GI50,[13],1.68 µM
same,TGI,[13],3.07 µM
same,GI50,[14],9.8 µM
same,TGI,[14],21.5 µM
same,GI50,[15],3.62 µM
same,TGI,[15],13.8 µM
same,GI50,[16],6.48 µM
same,TGI,[16],19.2 µM
same,GI50,[17],9.02 µM
same,TGI,[17],21.2 µM
same,GI50,[18],4.7 µM
same,TGI,[18],16.4 µM
same,GI50,[19],1.54 µM
same,TGI,[19],3.23 µM
same,GI50,[20],5.79 µM
same,TGI,[20],17.8 µM
same,TGI,[21],1.97 µM
same,GI50,[22],10.3 µM
same,TGI,[22],22.1 µM
same,GI50,[23],11.1 µM
same,TGI,[23],23.1 µM
same,GI50,[24],4.5 µM
same,TGI,[24],16.9 µM
same,GI50,[25],2.18 µM
same,TGI,[25],4.88 µM
same,GI50,[26],10.5 µM
same,TGI,[26],22.3 µM
same,GI50,[27],10.8 µM
same,TGI,[27],22.7 µM
same,GI50,[28],5.77 µM
same,TGI,[28],18.3 µM
same,GI50,[29],11.6 µM
same,TGI,[29],23.9 µM
same,GI50,[30],3.05 µM
same,TGI,[30],11.6 µM
same,GI50,[31],4.05 µM
same,TGI,[31],15.4 µM
same,GI50,[32],1.64 µM
same,TGI,[32],3.05 µM
same,GI50,[33],5.15 µM
same,TGI,[33],17.6 µM
same,GI50,[34],3.09 µM
same,TGI,[34],8.69 µM
same,GI50,[35],1.82 µM
same,TGI,[35],4.02 µM
same,GI50,[36],3.57 µM
same,TGI,[36],13.2 µM
same,GI50,[37],2.03 µM
same,TGI,[37],4.26 µM
same,GI50,[38],10.1 µM
same,TGI,[38],21.8 µM
same,GI50,[39],7.94 µM
same,TGI,[39],20.6 µM
same,GI50,[40],6.19 µM
same,TGI,[40],19.4 µM
same,GI50,[41],6.69 µM
same,TGI,[41],19.6 µM
same,GI50,[42],5.1 µM
same,TGI,[42],17.5 µM
same,GI50,[43],2.11 µM
same,TGI,[43],4.88 µM
same,GI50,[44],1.96 µM
same,TGI,[44],3.78 µM
same,GI50,[45],1.94 µM
same,TGI,[45],3.58 µM
same,GI50,[46],5.35 µM
same,TGI,[46],17.1 µM
same,GI50,[47],3.21 µM
same,TGI,[47],10.2 µM
Cc1cc([N+](=O)[O-])c(NS(=O)(=O)c2cccc(C(=O)O)c2)cc1-c1cccnc1,GI50,[1],> 100 µM
same,TGI,[1],> 100 µM
same,GI50,[2],> 100 µM
same,TGI,[2],> 100 µM
same,GI50,[3],> 100 µM
same,TGI,[3],> 100 µM
same,GI50,[4],> 100 µM
same,TGI,[4],> 100 µM
same,GI50,[5],> 100 µM
same,TGI,[5],> 100 µM
same,GI50,[6],> 100 µM
same,TGI,[6],> 100 µM
same,GI50,[7],> 100 µM
same,TGI,[7],> 100 µM
same,GI50,[8],> 100 µM
same,TGI,[8],> 100 µM
same,GI50,[9],> 100 µM
same,TGI,[9],> 100 µM
same,GI50,[10],> 100 µM
same,TGI,[10],> 100 µM
same,GI50,[11],> 100 µM
same,TGI,[11],> 100 µM
same,GI50,[12],> 100 µM
same,TGI,[12],> 100 µM
same,GI50,[13],> 100 µM
same,TGI,[13],> 100 µM
same,GI50,[14],> 100 µM
same,TGI,[14],> 100 µM
same,GI50,[15],> 100 µM
same,TGI,[15],> 100 µM
same,GI50,[16],> 100 µM
same,TGI,[16],> 100 µM
same,GI50,[17],> 100 µM
same,TGI,[17],> 100 µM
same,GI50,[18],> 100 µM
same,TGI,[18],> 100 µM
same,GI50,[19],> 100 µM
same,TGI,[19],> 100 µM
same,GI50,[20],> 100 µM
same,TGI,[20],> 100 µM
same,GI50,[21],> 100 µM
same,TGI,[21],> 100 µM
same,GI50,[22],> 100 µM
same,TGI,[22],> 100 µM
same,GI50,[23],> 100 µM
same,TGI,[23],> 100 µM
same,GI50,[24],> 100 µM
same,TGI,[24],> 100 µM
same,GI50,[25],> 100 µM
same,TGI,[25],> 100 µM
same,GI50,[26],> 100 µM
same,TGI,[26],> 100 µM
same,GI50,[27],> 100 µM
same,TGI,[27],> 100 µM
same,GI50,[28],> 100 µM
same,TGI,[28],> 100 µM
same,GI50,[29],> 100 µM
same,TGI,[29],> 100 µM
same,GI50,[30],> 100 µM
same,TGI,[30],> 100 µM
same,GI50,[31],> 100 µM
same,TGI,[31],> 100 µM
same,GI50,[32],> 100 µM
same,TGI,[32],> 100 µM
same,GI50,[33],> 100 µM
same,TGI,[33],> 100 µM
same,GI50,[34],> 100 µM
same,TGI,[34],> 100 µM
same,GI50,[35],> 100 µM
same,TGI,[35],> 100 µM
same,GI50,[36],> 100 µM
same,TGI,[36],> 100 µM
same,GI50,[37],> 100 µM
same,TGI,[37],> 100 µM
same,GI50,[38],> 100 µM
same,TGI,[38],> 100 µM
same,GI50,[39],> 100 µM
same,TGI,[39],> 100 µM
same,GI50,[40],> 100 µM
same,TGI,[40],> 100 µM
same,GI50,[41],> 100 µM
same,TGI,[41],> 100 µM
same,GI50,[42],> 100 µM
same,TGI,[42],> 100 µM
same,GI50,[43],> 100 µM
same,TGI,[43],> 100 µM
same,GI50,[44],> 100 µM
same,TGI,[44],> 100 µM
same,GI50,[45],> 100 µM
same,TGI,[45],> 100 µM
same,GI50,[46],> 100 µM
same,TGI,[46],> 100 µM
same,GI50,[47],16.8 µM
same,TGI,[47],> 100 µM
